Data from US12365739B2, “Monoclonal antibodies to angiotensin-(1-12), compositions including the same, and methods of use thereof” (Wake Forest University Health Sciences, priority 2021, dated 2025).
Values belong to the compound of their own block, whether it stands above or below them.

How the values were obtained:
[1] = system: TGR(hAGT)L1623 rats; conditions: chronic administration; cited from earlier work
[2] = target: T1, Ang II (Homo sapiens, UniProt P01019); test: Specificity of immunoneutralization: pressor response to Ang II; format: in vivo
T1 construct: host or cells: injected into TGR(hAGT)L1623 rats
Experimental: In a separate group of 12 TGR(hAGT)L1623 rats (6 females) the blood pressure and heart rate responses to intravenous bolus injection of a monoclonal antibody directed against the human amino acid sequence of Ang-(1-12) [Ang-(1-12)-mAb] was administered at a dose of 30 mg/kg. […] The Ang-(1-12)-mAb was diluted in physiological saline to a concentration of 30 mg in a volume not to exceed 1 mL of buffered saline. The specificity of the immunoneutralization of Ang-(1-12) was evaluated in additional experiments in which the rat sequence of Ang-(1-12) (300 pmol/kg, n=2); Ang II (50 pmol/kg; n=3 TGR(hAGT)L1623 rats) or an […] mouse IgG (30 mg/kg, n=4 TGR(hAGT)L1623 rats; Innovative Research, Inc. Novi, MI) were administered intravenously.

[3] = system: Sprague Dawley (SD) rats and TGR(hAGT)L1623 rats; test: Systemic vasoconstrictor activity of intravenous h-Ang-(1-12); format: in vivo, rat; conditions: for time to peak of increase in mean arterial pressure: 75-300 pmol/kg i.v.
Experimental: Efficacy of Ang-(1-12) Immunoneutralization in vivo: We examined the systemic vasoconstrictor activity of Ang-(1-12) (dose range 75-300 pmol) in 20 (10 females) Sprague Dawley (SD) rats (age 12-weeks) and 20 (10 female) other rats expressing the human sequence of the AGT gene [TGR(hAGT)L1623] (age 10-12 weeks) following induction of general anesthesia with thio-butabarbital sodium [Inactin® (135 mg/kg, i.p.)] and tracheal intubation for mechanical ventilation. Plastic catheters were introduced into a left carotid artery [PE-50 catheter attached to a heparinized saline wash syringe (15 USP U/mL) and a femoral vein (PE-10) for drug delivery. Phasic and mean arterial pressures, recorded with a True Wave pressure transducer (Edwards Lifesciences, Co, Irvine, CA) connected to the arterial cannula, were processed by a data-acquisition and analysis system with Acknowledge 5 software (MP160, BIOPAC System Inc., Goleta, CA). Heart rate was derived by the software from the electrical analysis of the rise portion of the pressure waveform.

[4] = system: isolated carotid artery rings; test: Ang-(1-12) constrictor activity in isolated carotid artery rings; design: species or system rat; conditions: concentration of 5×10^−1; SD and TGR(hAGT)L1623 rats; FIG. 7
From the text: Efficacy of Ang-(1-12) Immunoneutralization in Isolated Carotid Arteries. The ability of the Ang-(1-12)-mAb to block Ang-(1-12) vasoconstrictor activity in 6 SD and 3 TGR(hAGT)L1623 rats was further assessed in isolated carotid artery rings that were mounted in organ chambers as described elsewhere.^3 Under a dissecting microscope, both carotid arteries were dissected free of adventitial tissue, cut into 1.5-2 mm segments and mounted on a myograph (Multi Myograph, Model 610M Danish Myo Technologies, Aarhus, Denmark) using two stainless steel hooks. In all the arterial segments, the endothelium was disrupted by passing a human hair through the lumen of the vessel. The myograph chamber was filled with Krebs-Henseleit buffer (KHB) solution, maintained at 37° C. and aerated with 95% O2/5% CO2. The vessels were washed and incubated for 30 min before determining the optimal diameter. Each arterial segment was stretched to its individual optimal lumen diameter following the normalization procedure previously described. In all studies, after obtaining the optimal diameter, a 30-min equilibration period preceded the addition of the test substances. Contractile responses to a single dose of 62.5 mM KCl was obtained for all segments by calculating the average of three consecutive doses tested at 15 min intervals. This response was used to normalize tension between individual arterial segments. […]

Compound: CCCCC(=O)N(Cc1ccc(-c2ccccc2-c2nnn[nH]2)cc1)[C@H](C(=O)O)C(C)C [valsartan]
- effect on hypertension [1]: Reversal of the hypertension

- peak mean arterial pressure after bolus intravenous Ang II ([2]; 30-60 min after delivery of the Ang-(1-12) mAb, baseline 100±12 mm Hg): 117±13 mm Hg
- peak mean arterial pressure after bolus intravenous Ang II ([2]; before the Ang-(1-12) mAb, baseline 95±6 mm Hg): 114±8 mm Hg
Compound: angiotensin II (DRVYIHPF; listed as Homo sapiens) [Ang II]

Compound: human angiotensin-(1-12) (DRVYIHPFHLVI; listed as Homo sapiens) [h-Ang-(1-12)]
- time to peak of increase in mean arterial pressure ([3]; SD rats): 32.45 ± 1.08 s
- time to peak of increase in mean arterial pressure ([3]; TGR(hAGT)L1623 rats): 36.20 ± 1.52 s
- change in mean arterial pressure ([3]; i.v. doses between 75 pmol/kg and 300 pmol/kg): rapid and dose-dependent increases
- constrictor responses in carotid artery rings normalized for KCL [4]: significant constrictor responses
